{
  "source": "paper PMC3711802",
  "about": "(IUBMB life, 2012)",
  "key": {"EGFR [1]": {"test_system": "EGFR", "settings": "cited from earlier work"}, "EGFR [2]": {"target": "EGFR (Homo sapiens, UniProt P00533)", "assay": "Displacement of bound [^125I]-EGF in A431 cells", "assay_type": "binding"}, "[3]": {"test_system": "A431 subcutaneous xenografts", "assay": "Treatment of subcutaneous A431 xenografts in nude mice", "assay_type": "in vivo, human", "settings": "EGFR over-expressing cancers"}, "EGFR expressing cells": {"test_system": "EGFR expressing cells", "settings": "in vitro and in vivo, cited from earlier work"}, "EGFR [4]": {"test_system": "EGFR", "settings": "ref [8] Li et al., cited from earlier work"}},
  "note": "Like-named read-outs stand apart in the source and are kept apart here.",
  "data": [
    {"substance": "EGF: Recombinant human EGF (hEGF, Peprotech Asia)", "values": [
      {"measurement": "EGFR activation upon binding", "setting": "EGFR [1]; ref [20]", "value": "activates the kinase moiety of the receptor"}
    ]},
    {"substance": "Polyethyleneimine-polyetheleneglycol-EGF [PP-EGF]", "values": [
      {"measurement": "enhancement of potency by complexation with PolyIC", "setting": "EGFR [2]; [^125I]-EGF displacement, PolyIC complex vs uncomplexed conjugate", "value": "approximately 10 fold"},
      {"measurement": "in vitro and in vivo efficacy of both vectors in PolyIC treatment", "setting": "[3]", "value": "in vitro and in vivo efficacies of both vectors are comparable"}
    ]},
    {"substance": "Polyethyleneimine-polyetheleneglycol-GE11 [PPGE11]", "values": [
      {"measurement": "EGFR-binding affinity/inhibitory potency compared to GE11", "setting": "EGFR [2]; vs free GE11", "value": "much more potent EGFR binder as compared to GE11"},
      {"measurement": "in vitro and in vivo efficacy of both vectors in PolyIC treatment", "setting": "[3]", "value": "in vitro and in vivo efficacies of both vectors are comparable"},
      {"measurement": "gene delivery into EGFR expressing cells", "setting": "EGFR expressing cells; ref [9],[10],[16]", "value": "effective and specific gene delivery into EGFR expressing cells"},
      {"measurement": "targeting of EGFR over-expressing tumors", "setting": "EGFR expressing cells; ref [9],[10]", "value": "enabled the targeting of EGFR over-expressing tumors in vitro and in vivo"}
    ]},
    {"substance": "YHWYGYTPQNVI [GE11]", "values": [
      {"measurement": "affinity to the EGFR (in words)", "setting": "EGFR [4]; as a free ligand", "value": "high affinity"},
      {"measurement": "affinity to the EGFR", "setting": "EGFR [4]; free ligand", "value": "~ 22 nM"},
      {"measurement": "EGFR activation", "setting": "EGFR [1]; as previously shown by us, ref [9],[10]", "value": "does not activate the receptor"},
      {"measurement": "EGFR activation", "setting": "EGFR [1]; ref [8]", "value": "does not activate the EGFR"},
      {"measurement": "EGFR activation", "setting": "EGFR [1]; ref [9],[10]", "value": "without EGFR activation"}
    ]}
  ]
}
